From ChEMBL document CHEMBL5113454, “Design, synthesis, and bioactivity study on Lissodendrins B derivatives as PARP1 inhibitor” (Bioorg Med Chem, 2022)
Calls of active or inactive are those of the source. The rule behind the calls is not given here.

Assays:
MDA-MB-436 [1] = assay: Cell cycle arrest in BRCA1-deficient human MDA-MB-436 cells assessed as accumulation at G1 phase at 15 uM measured after 24 hrs by propidium iodide (PI) based FACS analysis (reference value: 26.7%); format: functional
HCC1937 [2] = assay: Induction of apoptosis in BRCA1-deficient human HCC1937 cells at 0.1 to 15 uM measured after 24 hrs by Annexin V/propidium iodide (PI) based FACS analysis; format: functional, cell-based; conditions: dose 0.1-15 µM
MDA-MB-436 [3] = assay: Induction of DNA damage in BRCA1-deficient human MDA-MB-436 cells at 0.1 to 15 uM assessed as increase in accumulation of DNA double-strand breaks measuring gamma-H2AX levels by Western blot analysis; format: functional, cell-based; conditions: dose 0.1-15 µM
HCC1937 [4] = assay: Cell cycle arrest in BRCA1-deficient human HCC1937 cells assessed as accumulation at G1 phase at 15 uM measured after 24 hrs by propidium iodide (PI) based FACS analysis (reference value: 31.6%); format: functional
HCC1937 [5] = assay: Cell cycle arrest in BRCA1-deficient human HCC1937 cells assessed as accumulation at S phase at 0.1 uM measured after 24 hrs by propidium iodide (PI) based FACS analysis (reference value: 26%); format: functional
HCC1937 [6] = assay: Cell cycle arrest in BRCA1-deficient human HCC1937 cells assessed as accumulation at G1 phase at 5 uM measured after 24 hrs by propidium iodide (PI) based FACS analysis (reference value: 31.6%); format: functional
MCF7 = assay: Induction of DNA damage in human MCF7 cells expressing BRCA1 at 0.1 to 15 uM assessed as increase in accumulation of DNA double-strand breaks measuring gamma-H2AX levels by Western blot analysis; format: functional, cell-based; conditions: dose 0.1-15 µM
HCC1937 [7] = assay: Cell cycle arrest in BRCA1-deficient human HCC1937 cells assessed as accumulation at G2 phase at 1 uM measured after 24 hrs by propidium iodide (PI) based FACS analysis (reference value: 13.5%); format: functional
MDA-MB-436 [8] = assay: Cell cycle arrest in BRCA1-deficient human MDA-MB-436 cells assessed as accumulation at S phase at 0.1 uM measured after 24 hrs by propidium iodide (PI) based FACS analysis (reference value: 27.4%); format: functional
MDA-MB-436 [9] = assay: Cell cycle arrest in BRCA1-deficient human MDA-MB-436 cells assessed as accumulation at G2 phase at 5 uM measured after 24 hrs by propidium iodide (PI) based FACS analysis (reference value: 17.6%); format: functional
MDA-MB-436 [10] = assay: Cell cycle arrest in BRCA1-deficient human MDA-MB-436 cells assessed as accumulation at G1 phase at 5 uM measured after 24 hrs by propidium iodide (PI) based FACS analysis (reference value: 26.7%); format: functional
MDA-MB-436 [11] = assay: Induction of apoptosis in BRCA1-deficient human MDA-MB-436 cells at 0.1 to 15 uM measured after 24 hrs by Annexin V/propidium iodide (PI) based FACS analysis; format: functional, cell-based; conditions: dose 0.1-15 µM
HCC1937 [12] = assay: Cell cycle arrest in BRCA1-deficient human HCC1937 cells assessed as accumulation at G2 phase at 5 uM measured after 24 hrs by propidium iodide (PI) based FACS analysis (reference value: 13.5%); format: functional
MDA-MB-436 [13] = assay: Cell cycle arrest in BRCA1-deficient human MDA-MB-436 cells assessed as accumulation at G2 phase at 1 uM measured after 24 hrs by propidium iodide (PI) based FACS analysis (reference value: 17.6%); format: functional
MDA-MB-436 [14] = assay: Cell cycle arrest in BRCA1-deficient human MDA-MB-436 cells assessed as accumulation at G1 phase at 0.1 uM measured after 24 hrs by propidium iodide (PI) based FACS analysis (reference value: 26.7%); format: functional
HCC1937 [15] = assay: Cell cycle arrest in BRCA1-deficient human HCC1937 cells assessed as accumulation at G2 phase at 15 uM measured after 24 hrs by propidium iodide (PI) based FACS analysis (reference value: 13.5%); format: functional
HCC1937 [16] = assay: Cell cycle arrest in BRCA1-deficient human HCC1937 cells assessed as accumulation at S phase at 1 uM measured after 24 hrs by propidium iodide (PI) based FACS analysis (reference value: 26%); format: functional
HCC1937 [17] = assay: Antiproliferative activity against human HCC1937 cells after 7 days by resazurin reduction assay; conditions: HCC1937, 168 h
MDA-MB-436 [18] = assay: Cell cycle arrest in BRCA1-deficient human MDA-MB-436 cells assessed as accumulation at S phase at 1 uM measured after 24 hrs by propidium iodide (PI) based FACS analysis (reference value: 27.4%); format: functional
HCC1937 [19] = assay: Cell cycle arrest in BRCA1-deficient human HCC1937 cells assessed as accumulation at S phase at 5 uM measured after 24 hrs by propidium iodide (PI) based FACS analysis (reference value: 26%); format: functional
HCC1937 [20] = assay: Cell cycle arrest in BRCA1-deficient human HCC1937 cells assessed as accumulation at G2 phase at 0.1 uM measured after 24 hrs by propidium iodide (PI) based FACS analysis (reference value: 13.5%); format: functional
HCC1937 [21] = assay: Cell cycle arrest in BRCA1-deficient human HCC1937 cells assessed as accumulation at G1 phase at 0.1 uM measured after 24 hrs by propidium iodide (PI) based FACS analysis (reference value: 31.6%); format: functional
MDA-MB-436 [22] = assay: Cell cycle arrest in BRCA1-deficient human MDA-MB-436 cells assessed as accumulation at G1 phase at 1 uM measured after 24 hrs by propidium iodide (PI) based FACS analysis (reference value: 26.7%); format: functional
MDA-MB-436 [23] = assay: Cell cycle arrest in BRCA1-deficient human MDA-MB-436 cells assessed as accumulation at G2 phase at 0.1 uM measured after 24 hrs by propidium iodide (PI) based FACS analysis (reference value: 17.6%); format: functional
MDA-MB-436 [24] = assay: Cell cycle arrest in BRCA1-deficient human MDA-MB-436 cells assessed as accumulation at S phase at 5 uM measured after 24 hrs by propidium iodide (PI) based FACS analysis (reference value: 27.4%); format: functional
MDA-MB-436 [25] = assay: Antiproliferative activity against human MDA-MB-436 cells after 7 days by resazurin reduction assay; conditions: MDA-MB-436, 168 h
HCC1937 [26] = assay: Cell cycle arrest in BRCA1-deficient human HCC1937 cells assessed as accumulation at G1 phase at 1 uM measured after 24 hrs by propidium iodide (PI) based FACS analysis (reference value: 31.6%); format: functional
HCC1937 [27] = assay: Cell cycle arrest in BRCA1-deficient human HCC1937 cells assessed as accumulation at S phase at 15 uM measured after 24 hrs by propidium iodide (PI) based FACS analysis (reference value: 26%); format: functional
MDA-MB-436 [28] = assay: Cell cycle arrest in BRCA1-deficient human MDA-MB-436 cells assessed as accumulation at S phase at 15 uM measured after 24 hrs by propidium iodide (PI) based FACS analysis (reference value: 27.4%); format: functional
MDA-MB-436 [29] = assay: Cell cycle arrest in BRCA1-deficient human MDA-MB-436 cells assessed as accumulation at G2 phase at 15 uM measured after 24 hrs by propidium iodide (PI) based FACS analysis (reference value: 17.6%); format: functional

In the case of `COc1ccc(C(=O)C(=O)c2c(-c3ccc(OC)cc3)nc(NC(=O)CN3CCc4cc(OC)c(OC)cc4C3)n2C)cc1`, the Activity (MDA-MB-436 [1]) is reported as 9.85%, the Activity (HCC1937 [2]) is reported as “Active” and the Activity (MDA-MB-436 [3]) is reported as “Active”. It also gave an Activity (HCC1937 [4]) of 7%, an Activity (HCC1937 [5]) of 19.9% and an Activity (HCC1937 [6]) of 24.7%. For the same compound, the Activity (MCF7) was “Active”, the Activity (HCC1937 [7]) was 21.6% and the Activity (MDA-MB-436 [8]) was 30.2%. The Activity (MDA-MB-436 [9]) was 32.8%, the Activity (MDA-MB-436 [10]) was 10.4% and the Activity (MDA-MB-436 [11]) was “Active”. It also gave an Activity (HCC1937 [12]) of 22.4%, an Activity (MDA-MB-436 [13]) of 25.4% and an Activity (MDA-MB-436 [14]) of 23.3%. For the same compound, the Activity (HCC1937 [15]) was 45.9%, the Activity (HCC1937 [16]) was 18.7% and the IC50 (HCC1937 [17]) was 17.8 µM. For the same compound, the Activity (MDA-MB-436 [18]) was 21.5%, the Activity (HCC1937 [19]) was 23.2% and the Activity (HCC1937 [20]) was 18.3%. The Activity (HCC1937 [21]) was 36.6%, the Activity (MDA-MB-436 [22]) was 25.1% and the Activity (MDA-MB-436 [23]) was 17%. It also gave an Activity (MDA-MB-436 [24]) of 29.1%, an IC50 (MDA-MB-436 [25]) of 12.6 µM and an Activity (HCC1937 [26]) of 32.8%. It also gave an Activity (HCC1937 [27]) of 17.8%, an Activity (MDA-MB-436 [28]) of 33.3% and an Activity (MDA-MB-436 [29]) of 28.5%.
